Broadly, the IC50 is the point on the concentration scale where inhibition reaches its midpoint. In general, melting point refers to the temperature of the solid-liquid transition. As a reminder, the inhibition is the change of the read-out against control, counted positive when it falls.

This is an account of results in patent US6716833B2, “Acetylenic α-amino acid-based sulfonamide hydroxamic acid tace inhibitors” (priority 1999, dated 2004).

The structures appear in SMILES notation.

The target in one series is T1, MMP-1 (Homo sapiens, UniProt P03956).
T1 sequence (P03956 100-469): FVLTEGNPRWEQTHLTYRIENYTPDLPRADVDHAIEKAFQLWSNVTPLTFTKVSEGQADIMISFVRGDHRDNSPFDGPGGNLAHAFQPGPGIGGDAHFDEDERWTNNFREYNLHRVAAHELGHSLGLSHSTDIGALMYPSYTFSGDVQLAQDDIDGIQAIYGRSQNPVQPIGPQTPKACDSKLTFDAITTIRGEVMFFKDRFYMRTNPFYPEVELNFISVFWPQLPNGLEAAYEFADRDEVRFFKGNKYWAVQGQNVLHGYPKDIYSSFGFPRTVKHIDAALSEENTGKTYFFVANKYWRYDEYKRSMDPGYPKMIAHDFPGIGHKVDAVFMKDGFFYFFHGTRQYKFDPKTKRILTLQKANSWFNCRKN
Briefly: MMP-1 inhibition (thiopeptide or fluorescent peptide substrate). The format is biochemical. As to conditions: read-out: MMP-1 IC50.

The target in a further series is MMP-13 (Homo sapiens, UniProt P45452). Briefly: MMP-13 inhibition (thiopeptide or fluorescent peptide substrate). Type of series: biochemical. As to conditions: read-out: MMP-13 IC50.
The next series addresses MMP-9 (Homo sapiens, UniProt P14780). The experiment in a line: MMP-9 inhibition (thiopeptide or fluorescent peptide substrate). As to conditions: read-out: MMP-9 IC50. The format is biochemical.
For the next series, the system named is THP-1 cells. Briefly: THP-1 soluble protein assay, soluble TNF-α (ELISA). The format is cell-based, human. As to conditions: Homo sapiens, THP-1, 3 μM; THP-1 cells; read-out: THP % Inhibition @ 3 μM.
For series [1], the target named is TNF-α converting enzyme (TACE) (Homo sapiens, UniProt P78536). The experiment in a line: TACE inhibition (fluorescent peptidyl substrate). Type of series: biochemical. As to conditions: read-out: TACE IC50.
Chain of TNF-α converting enzyme (TACE) (P78536 215-824, species assumed): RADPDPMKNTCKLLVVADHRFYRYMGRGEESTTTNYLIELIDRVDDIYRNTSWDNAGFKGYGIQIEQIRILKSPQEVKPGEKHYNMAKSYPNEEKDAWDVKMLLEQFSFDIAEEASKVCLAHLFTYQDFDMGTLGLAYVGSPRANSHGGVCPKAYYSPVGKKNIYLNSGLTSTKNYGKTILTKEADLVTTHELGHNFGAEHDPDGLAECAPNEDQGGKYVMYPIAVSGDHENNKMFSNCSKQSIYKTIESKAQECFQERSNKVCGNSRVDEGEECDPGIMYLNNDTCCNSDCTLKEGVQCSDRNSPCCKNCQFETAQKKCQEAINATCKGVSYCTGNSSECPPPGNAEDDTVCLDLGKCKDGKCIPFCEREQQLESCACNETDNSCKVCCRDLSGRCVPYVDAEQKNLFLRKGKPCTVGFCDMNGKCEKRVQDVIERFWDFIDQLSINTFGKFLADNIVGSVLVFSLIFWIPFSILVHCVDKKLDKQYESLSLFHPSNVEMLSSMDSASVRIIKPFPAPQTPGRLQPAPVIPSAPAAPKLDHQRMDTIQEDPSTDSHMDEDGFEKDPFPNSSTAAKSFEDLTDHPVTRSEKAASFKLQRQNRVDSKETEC

Chain of MMP-9 (P14780 94-707): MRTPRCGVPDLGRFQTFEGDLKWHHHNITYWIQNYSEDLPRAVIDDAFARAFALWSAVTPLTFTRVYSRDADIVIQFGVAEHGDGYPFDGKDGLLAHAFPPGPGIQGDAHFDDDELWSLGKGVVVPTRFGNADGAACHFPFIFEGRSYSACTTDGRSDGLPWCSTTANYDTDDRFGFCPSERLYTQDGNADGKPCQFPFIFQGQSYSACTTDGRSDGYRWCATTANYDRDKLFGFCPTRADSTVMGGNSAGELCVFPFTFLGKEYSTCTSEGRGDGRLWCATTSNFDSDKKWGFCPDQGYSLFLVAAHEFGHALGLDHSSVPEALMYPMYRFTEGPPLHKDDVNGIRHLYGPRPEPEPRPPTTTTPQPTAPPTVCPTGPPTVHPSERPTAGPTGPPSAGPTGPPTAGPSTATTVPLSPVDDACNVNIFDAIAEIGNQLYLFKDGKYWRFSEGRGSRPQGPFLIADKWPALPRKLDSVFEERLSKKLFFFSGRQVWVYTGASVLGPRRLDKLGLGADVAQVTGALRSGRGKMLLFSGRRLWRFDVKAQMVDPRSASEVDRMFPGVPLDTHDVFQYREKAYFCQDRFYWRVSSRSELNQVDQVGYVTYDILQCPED
Procedure for THP-1 cells: Each vial of cells are cultured for about two weeks prior to being used for an assay and then are used for only 4 to 6 weeks to screen compounds.
Cell exposure to DMSO was limited to 0.1% final concentration. […] Plates are placed into an incubator set at 5% CO2 and at 37° C. After 4 hours of incubation, 300 ml/well of tissue culture supernatant (TCS) is removed for use in an TNF-α ELISA.
Percent change in each soluble protein evaluated from the “vehicle positive control” was calculated for each compound concentration with the following formula:
% Change=pg/ml (compound)−pg/ml (veh pos control)/(veh pos control)−pg/ml (veh neg control)×100
For the soluble protein (TNF-α, p75/80, p55/60, IL-8) studies under stimulated conditions, the mean pg/ml of duplicate wells were determined and the results expressed as percent change from “vehicle positive control”.

Consider `CC#CCOc1ccc(S(=O)(=O)NC(C(=O)NO)C(C)(C)SCCC)cc1` (stereo not drawn) [Example 160, 2-[(4-but-2-ynyloxy-Benenesulfonyl)-amino]-N-hydroxy-3-methyl-3-propylsulfanyl-butyramide], for which the melting point fell in the range of 152 to 155 °C. Further, the IC50 on MMP-1 came to 1400 nM. The IC50 on MMP-13 was 65 nM. Further, on MMP-9, the IC50 is 1010 nM. In addition, the inhibition at 3 µM in the series with THP-1 cells stood at 67%. In series [1], the IC50 was determined as 15 nM.
Molecule `CC#CCOc1ccc(S(=O)(=O)NC(C(=O)NO)C(C)(C)SCc2ccccc2)cc1` (stereo not drawn) [Example 162] gave a melting point of 92 to 95 °C. The IC50 at MMP-1 is 310 nM. Besides, the IC50 on MMP-13 came out at 8.3 nM. The IC50 on MMP-9 came to 138 nM. In the series with THP-1 cells, the inhibition at 3 µM is 49%. Further, the IC50 in series [1] worked out at 19 nM.
Turning to `CC#CCOc1ccc(S(=O)(=O)NC(C(=O)NO)C(C)(C)SCc2nccn2C)cc1` (stereo not drawn) [Example 163], the melting point lay within 112 to 115 °C. In addition, at MMP-1, the IC50 stood at 1720 nM. In addition, the IC50 at MMP-13 was 47 nM. The IC50 at MMP-9 was 306 nM. In addition, in the series with THP-1 cells, the inhibition at 3 µM was 77%. Also, in series [1], the IC50 came to 18 nM.
With `CC#CCOc1ccc(S(=O)(=O)NC(C(=O)NO)C(C)(C)SCCN2CCOCC2)cc1` (stereo not drawn) [Example 164], the melting point came to 72 °C. The IC50 on MMP-1 amounted to 1570 nM. The IC50 at MMP-13 was 20 nM. The IC50 on MMP-9 was 204 nM. The inhibition at 3 µM in the series on THP-1 cells was 70%. The concentration for half-maximal inhibition (IC50) in series [1] was found to be 64 nM.
As to `CC#CCOc1ccc(S(=O)(=O)NC(C(=O)NO)C(C)(C)SCC(=O)OC(C)(C)C)cc1` (stereo not drawn) [Example 165], the melting point lay within 47 to 52 °C. For the same molecule, at MMP-1, the IC50 came to 2430 nM. The IC50 on MMP-13 was determined as 177 nM. Further, on MMP-9, the half-inhibitory concentration (IC50) turned out to be 587 nM. Further, the inhibition at 3 µM in the series with THP-1 cells was 84%. Further, the IC50 in series [1] worked out at 69 nM.
